Reference: US20220288048A1, “PIMAVANSERIN FOR TREATING SCHIZOPHRENIA OR FOR TREATING PSYCHOSIS SECONDARY TO NEURODEGENERATIVE DISORDERS OR DEPRESSIVE DISORDER” (ACADIA Pharmaceuticals Inc., priority 2019, published 2022)
“Also recorded” adds a separate entry of the source.

Assays:
Assay type in all cases: in vivo
[1] = system: scPCP+ARS(2h) treated male C57BL/6J mice; assay: 10-min social interaction test in scPCP-treated mice given 2 h acute restraint stress (treatment-resistant model); settings: for Able to restore sniffing or decrease avoidance (SI deficit), drug alone: risperidone 0.2, olanzapine 1, aripiprazole 1 or pimavanserin 3 mg/kg ip alone, 45 min prior to test
Experimental: (§1) Briefly, mice were habituated to the test arena (i.e., the NOR box) for 30 minutes prior to the test day. Pairs of mice, unfamiliar to each other, received either the same treatment (e.g., vehicle and vehicle; N=10 pairs) or different treatments (e.g., vehicle; N=10 and phencyclidine (PCP) 10 mg/kg; N=10). After washout, they were placed in the test arena together for 10 minutes. A heavy object made of Plexiglas or metal was placed in the center of the test arena to quantify the time and nature of interaction of the test animals with an unfamiliar object or an unfamiliar animal. After the 10 min test phase, the object and the arena were cleaned with 70% ethanol to remove any olfactory trails. Behavior was recorded on video for subsequent blind scoring.
(§2) The following four behaviors were scored for each animal: • a) Sniffing: A normal mouse engages in sniffing the con-specific mouse's body, including the anogenital area • b) Following: A normal mouse pursues a con-specific mouse around the arena • c) Avoiding: A normal mouse avoids the con-specific mouse and move away from a pursuing mouse if approached • d) Object Exploration: A normal mouse explores the object that is placed in the center of the test arena.
Acute restraint stress (ARS) protocol: Mice were assigned to one of two groups: either the control group (non-stress) or the stress group. Generally, mice of the stress group were restrained in well-ventilated 50 mL tubes. After the restraint period of 1 or 2 hours, the mice were transferred into a clean animal housing cage for 1-hour interval and thereafter went through the first social interaction test (different mice are used to test different groups).
Treatment resistant animal model: To establish this model, Acute restraint stress (ARS) was added to scPCP treatment. Two groups (vehicle+ARS; scPCP+ARS) and their controls (vehicle+saline; scPCP+saline) were used. ARS was applied for 1 or 2 hours and tested on SI 1 hour post-ARS.
(§3) The behavioral assay, ARS protocol, and scPCP-treatment as described in Example 2 were used. To test the effect of atypical APD and pimavanserin, alone or as con-administration, in scPCP-treated mice (N=10 pairs of mice per group) given 2 h ARS, risperidone (“Risp”) was administered as 0.2 mg/kg or 0.4 mg/kg ip; olanzapine (“Olan”) as 1.0 mg/kg ip; aripiprazole (“Aripi”) as 1.0 mg/kg ip; and pimavanserin (“Pim”) as 3 mg/kg ip to scPCP+ARS(2h) treated male C57BL/6J mice 45 minutes prior to the commencement of the social interaction task in the 10 min social interaction test. Plasma levels of risperidone were measured using a Triple Quad 6500+ mass spectrometer.

[2] = system: scPCP-treated C57BL/6J mice; assay: 10-min social interaction test in scPCP-treated mice; settings: 45 min prior to test
Experimental: Negative symptoms model: The behavioral assay utilized to assess negative symptoms was social interaction (SI) task.
as §1, §2
scPCP treatment involved intraperitoneal injection (ip) of 10 mg/kg PCP to male C57BL/6J mice, twice daily (bid) for 7 days, followed by 7 days washout. To test the effect of atypical APD or pimavanserin in scPCP-treated mice (N=10 pairs of mice per group), risperidone was administered as 0.05 mg/kg ip or 0.2 mg/kg ip; and pimavanserin was administered as 3 mg/kg ip or 6 mg/kg ip to scPCP-treated mice 45 minutes prior to the commencement of the social interaction task in the 10 min social interaction test.

[3] = Plasma levels of risperidone in scPCP and ARS-treated mice (mass spectrometer)
Experimental: as §3

O=C1CCc2ccc(OCCCCN3CCN(c4cccc(Cl)c4Cl)CC3)cc2N1 [aripiprazole]
Able to restore sniffing or decrease avoidance (SI deficit), drug alone [1]: Neither

Cc1nc2n(c(=O)c1CCN1CCC(c3noc4cc(F)ccc34)CC1)CCCC2 [risperidone]
SI deficit produced by scPCP: time exploring the conspecific mouse ([2]; risperidone 0.05 mg/kg ip): sub-effective
SI deficit produced by scPCP: time exploring the conspecific mouse ([2]; risperidone 0.2 mg/kg ip): spent more time exploring the conspecific mouse
Effect on SI deficit, doubled dose ([1]; risperidone 0.4 mg/kg ip): ineffective
Able to restore sniffing or decrease avoidance (SI deficit), drug alone [1]: Neither; also recorded: ineffective
Plasma levels of risperidone ([3]; 0.2 mg/kg risperidone group): 5.4±0.1
Plasma levels of risperidone ([3]; 0.2 mg/kg risperidone plus 3 mg/kg pimavanserin group): 5.3±0.6
Plasma levels of risperidone ([3]; 0.4 mg/kg risperidone group): 8.0±3.3
